The values below come from article PMC8297476 (Biochemistry, 2021).

A word on the Kd: it is the constant that tells how readily two partners part at equilibrium. Low readings indicate tighter binding, high ones weaker binding. As usually defined, the Km is the concentration of substrate that gives half-maximal velocity.

In assay [1] the target is T1, adenylate kinase (AdK) (Escherichia coli, UniProt P69441). Kind of assay: isothermal titration calorimetry. It counts as binding. On the technique in general: ITC needs no label: the signal is the heat of the interaction.
T1 sequence (P69441 whole entry): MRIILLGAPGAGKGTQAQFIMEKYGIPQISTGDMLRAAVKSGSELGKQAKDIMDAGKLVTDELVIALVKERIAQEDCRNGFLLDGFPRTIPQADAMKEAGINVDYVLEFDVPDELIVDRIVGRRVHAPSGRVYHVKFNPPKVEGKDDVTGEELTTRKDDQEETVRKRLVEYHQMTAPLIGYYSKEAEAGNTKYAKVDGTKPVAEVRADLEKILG
In assay [2] the target is T1, adenylate kinase (AdK). The experiment in a line: steady-state enzyme kinetics. It counts as biochemical. Particulars: cited from earlier work.

Compound `Nc1ncnc2c1ncn2[C@@H]1O[C@H](COP(=O)(O)OP(=O)(O)O)[C@@H](O)[C@H]1O` [ADP] displayed a Kd at adenylate kinase (AdK) [1] of 9 µM.

Regarding `Nc1ncnc2c1ncn2[C@@H]1O[C@H](COP(=O)(O)OP(=O)(O)OP(=O)(O)O)[C@@H](O)[C@H]1O` [ATP], on adenylate kinase (AdK) [2], the Km was 71 µM.
